Assay results taken from patent publication US11878961B2, “Next generation FKBP52 targeting drugs for the treatment of prostate and breast cancer” (Board of Regents, The University of Texas System, priority 2020, dated 2024).
Entries after “also recorded” stand apart in the source; their conditions may differ.

Legend:
Format in all cases: cell-based
[1] = test system: FKBP52-regulated AR activity; assay: DHT-induced AR-dependent luciferase reporter with or without exogenous FKBP52 in fkbp52-deficient cells; details: presence or absence of exogenous FKBP52; fkbp52-deficient 22Rv1, HeLa and mouse embryonic fibroblast cells
Procedure: Referring to FIG. 22, dihydrotestosterone (DHT)-induced, androgen receptor-dependent luciferase reporter gene expression was assessed in the presence of a range of PC257 concentrations in the presence or absence of exogenous FKBP52 expression in fkbp52-deficient 22Rv1, HeLa, and mouse embryonic fibroblast cells. The IC50 values are indicated. […] PC257 is anticipated to target the PPIase pocket, a highly conserved enzymatic pocket among the FKBP family of proteins.

[2] = test system: progesterone receptor (PR); assay: PR-dependent luciferase reporter assay in T47D cells; details: result in words
Procedure: (§1) Referring to FIG. 21, hormone-induced, receptor-dependent luciferase reporter gene expression was assessed in the presence of a range of PC257 concentrations for androgen receptor (AR) and glucocorticoid receptor (GR) in MDAkb2 cells, and for progesterone receptor (PR) and estrogen receptor (ER) in T47D cells. The IC50 values for AR, GR and PR inhibition are shown.

[3] = test system: glucocorticoid receptor (GR); assay: GR-dependent luciferase reporter assay in MDA-kb2 cells (50 nM DEX); details: MDAkb2 cells, result in words
Procedure: (§2) FIGS. 20A-20D depict PC257 (ZINC3424402) which inhibits FKBP52-Specific AR, GR and ER-Mediated Activity in accordance with an illustrative embodiment. (FIG. 20A) An in silico screen lead to 107 lead molecules for functional screening that lead to an initial hit molecule PC257 (ZINC3424402). (FIG. 20B) MDA-kb2 cells expressing a stably AR- and GR-response luciferase reporter was treated with 200 pM DHT with a range of PC257 (ZINC3424402) concentrations (0, 0.01, 0.1, 1, 10, 25, 50, and 100 uM) for 16-18 hours in order to test for AR-dependent activity. The graphs represent an average of 4 independent receptor mediated luciferase receptor experiments. (FIG. 20C) MDA-kb2 cells expressing a stably AR- and GR-responsive luciferase reporter was treated with 50 nM DEX with a range of PC257 (ZINC3424402) concentrations (0, 0.01, 0.1, 1, 10, 25, 50, and 100 uM) for 16-18 hours in order to test for GR-dependent activity. The graphs represent an average of 4 independent receptor mediated luciferase receptor experiments. […]
as §1, with “The IC50 values for AR, GR and PR inhibition are shown.” left out

estrogen receptor (ER) = assay: ER-regulated luciferase reporter assay in T47D-KBluc cells (10 pM E2); details: result in words
Procedure: as §2
as §1, with “The IC50 values for AR, GR and PR inhibition are shown.” left out

AR nuclear translocation = AR nuclear translocation by fluorescence microscopy in 22Rv1 cells; details: 22Rv1 prostate cancer cells, 75 μM, in the presence of hormone
Procedure: FIG. 24 depicts that PC257 Blocks Androgen-Dependent AR Nuclear Translocation in accordance with an illustrative embodiment.
Referring to FIG. 24, 22Rv1 prostate cancer cells were treated with or without 75 μM in the presence of hormone and AR and FKBP52 cellular localization was assessed by fluorescence microscopy.

[4] = test system: endogenous AR-dependent gene expression; assay: Hormone-dependent FKBP51 and/or PSA protein levels by Western blot and densitometry; details: range of PC257 concentrations, normalized to GAPDH
Procedure: Referring to FIG. 23, hormone-dependent FKBP51 and/or PSA protein levels were assessed by Western blot and densitometry in the indicated cell lines in the presence of a range of PC257 concentrations. GAPDH was used as a loading control and the densitometry data were normalized to GAPDH.

androgen receptor (AR) = assay: AR-mediated luciferase reporter assay in MDA-kb2 cells (200 pM DHT)
Procedure: FIGS. 19A-19B depict identification of novel FKBP52-specific hit compounds in accordance with an illustrative embodiment. Structure-based drug design methodology and in silico library screening was used to identify 107 molecules targeting the FKBP52 PPIase pocket. Molecules were assessed for the ability to inhibit AR-mediated luciferase expression at a single high concentration (25 μM) in MDA-kb2 cells. […] MDA-kb2 cells were treated with 200 pM DHT with a range of derivative concentrations. Molecules in the low μM range will be tested in GR-, PR- and ER-Mediated luciferase assays in order to assess GR-dependent activity, PR-dependent activity and to test the effects of ER-regulated activity. A detailed evaluation of all candidate molecules will be tested in multiple cellular and animal models of prostate cancer.
FIGS. 20A-20D depict PC257 (ZINC3424402) which inhibits FKBP52-Specific AR, GR and ER-Mediated Activity in accordance with an illustrative embodiment. […]
as §1, with “The IC50 values for AR, GR and PR inhibition are shown.” left out

## Cc1cc(C(=O)COC(=O)Cc2n[nH]c(=O)c3ccccc23)c(C)n1C[C@H]1COc2ccccc2O1 [PC257, [2-[1-[[(3S)-2,3-Dihydro-1,4-benzodioxin-3-yl]methyl]-2,5-dimethylpyrrol-3-yl]-2-oxoethyl] 2-(4-oxo-3H-phthalazin-1-yl)acetate]
[1]
  preference for FKBP52-regulated AR activity: preferentially targets FKBP52-regulated AR activity with increased potency
[2]
  inhibition of PR activity: specifically abrogates
[3]
  inhibition of GR activity: specifically abrogates
Estrogen receptor (ER)
  inhibitory activity on ER: no inhibitory activity
AR nuclear translocation
  AR nuclear translocation: significantly inhibits AR nuclear translocation
[4]
  endogenous AR-dependent gene expression (FKBP51/PSA protein): abrogates endogenous AR-dependent gene expression
Androgen receptor (AR); MDA-kb2 cell reporter assay, 200 pM DHT, full dose response, read-out: IC50, inhibition of AR activity
  IC50: 2000 nM
Androgen receptor (AR); MDA-kb2 cells, luciferase reporter, result in words
  inhibition of AR activity: inhibition of AR activity in the low micromolar range; also recorded: specifically abrogates
